According to patent US9416348B2, “Hepatocyte-like cells and uses thereof” (priority 2010, dated 2016):

Test system: iHep cells
Assay: CYP metabolism assay, iHep cells incubated with substrate, metabolite by LC-MS/MS
Conditions: for 4′-OH-Diclotenac: mouse, 3 h
Protocol: To determine Alb secretion, TTFs transduced with three factors were cultured in the medium without phenol red. Culture supernatant was collected 24 h after medium change. The amount of Alb in the supernatant was determined by the mouse albumin ELISA kit (BETHYL LABORATORY) according to the manufacturer's instructions. […] The supernatants were collected for measurement of indicated productions by LC-MS/MS (AGILENT 1200 HPLC and ABI 4000 mass-spectrometer). Freshly isolated hepatocytes were used as a positive control. Total cell protein amount was used to normalize the data.
Metabolites of these chemicals were measured by liquid chromatography-tandem mass spectrometry (LC/MS/MS) according to each standard curve.

SMILES | metabolism by iHep cells (iHep cells, P<0.05) | 4′-OH-Diclotenac (12.5 μM) | 4′-OH-Diclotenac (25 μM) | 4′-OH-Diclotenac (50 μM) | 4′-OH-Diclotenac (100 μM)
C[C@]12CC[C@H]3[C@@H](CCC4=CC(=O)CC[C@@]43C)[C@@H]1CC[C@@H]2O [Testosterone, testosterone] | metabolized | – | – | – | –
O=C(O)Cc1ccccc1Nc1c(Cl)cccc1Cl [Diclofenac, diclofenac] | – | 0.0 pmol/min/mg protein | 17.0 ± 8.0 pmol/min/mg protein | 195.4 ± 16.0 pmol/min/mg protein | 483.3 ± 60.1 pmol/min/mg protein
